According to ChEMBL document CHEMBL1121877, “Isomeric phenylthioimidazo[1,2-alpha]pyridines as anthelmintics” (1981):

Key:
Format in all cases: functional
Mus musculus [1] = organism: Mus musculus; assay: Compound (1000 p.p.m.) was tested for percent reduction of Nematospiroides dubius in mice
Mus musculus [2] = organism: Mus musculus; assay: Compound (125 p.p.m.) was tested for percent reduction of Nematospiroides dubius in mice
Mus musculus [3] = organism: Mus musculus; assay: Compound (250 p.p.m.) was tested for percent reduction of Nematospiroides dubius in mice
Mus musculus [4] = organism: Mus musculus; assay: Compound (500 p.p.m.) was tested for percent reduction of Nematospiroides dubius in mice
Mus musculus [5] = organism: Mus musculus; assay: Compound (62.5 p.p.m.) was tested for percent reduction of Nematospiroides dubius in mice

Structure (SMILES) | Reduction (Mus musculus [1]) [%] | Reduction (Mus musculus [2]) [%] | Reduction (Mus musculus [3]) [%] | Reduction (Mus musculus [4]) [%] | Reduction (Mus musculus [5]) [%]
COC(=O)Nc1cn2ccccc2n1 | 54 |  |  |  | 
COC(=O)Nc1cn2c(Sc3ccccc3)cccc2n1 | 0 |  |  |  | 
COC(=O)Nc1cn2cc(Sc3ccccc3)ccc2n1 |  | 75 | 98 | 100 | 20
COC(=O)Nc1cn2cccc(Sc3ccccc3)c2n1 | 0 |  |  |  | 
COC(=O)Nc1cn2cc([S+]([O-])c3ccccc3)ccc2n1 (stereo not given) |  | 100 | 100 |  | 90
COC(=O)Nc1cn2ccc(Sc3ccccc3)cc2n1 | 0 |  |  |  | 
CC(C)OC(=O)Nc1ccc2[nH]c(-c3cscn3)nc2c1 [CAMBENDAZOLE] | 100 | 0 | 20 | 80 | 0
COC(=O)Nc1nc2cc(Sc3ccccc3)ccc2[nH]1 [FENBENDAZOLE] |  | 74 | 97 | 100 | 0
c1ccc2[nH]c(-c3cscn3)nc2c1 [THIABENDAZOLE] | 87 | 0 | 0 | 47 | 0
